From US20240132431A1, “METHOD FOR ALKYLATING ACIDIC FUNCTIONAL GROUP” (Chugai Seiyaku Kabushiki Kaisha, priority 2021, published 2024)

Biological target: T1, Bcl-2 protein (Recombinant Human Bcl-2 Protein) (Homo sapiens, UniProt P10415)
T1 construct: purchased Novus NBP2-34889
Experiment: Binding evaluation of mixture library compounds to Bcl-2 using AS-MS (affinity selection mass spectrometry)
Settings: AS-MS, mixture of 1200 compounds, Bcl-2, ASMS Ratio(%)=(A−C)/B×100; for ASMS ratio (%) n = 1: replicate n = 1; for ASMS ratio (%) n = 2: replicate n = 2
In short: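 Readout is ASMS Ratio (%), (A−C)/B×100, from reversed-phase LC/MS of SEC-passed extracts, with protein-free unfiltered standard (B) and protein-free SEC blank (C). Recombinant human Bcl-2 at 20 μM final met ~1200 pooled compounds at […] each for 1 h, 23° C., dark, in Tris-HCl pH 7.4 buffer.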

T1 sequence (P10415 whole entry): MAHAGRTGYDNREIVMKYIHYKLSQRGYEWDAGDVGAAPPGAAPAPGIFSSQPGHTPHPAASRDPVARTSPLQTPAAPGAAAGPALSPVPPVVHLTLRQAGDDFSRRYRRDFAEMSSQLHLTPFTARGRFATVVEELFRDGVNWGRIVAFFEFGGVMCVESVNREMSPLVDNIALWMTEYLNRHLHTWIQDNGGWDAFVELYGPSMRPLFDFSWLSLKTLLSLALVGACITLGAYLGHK

Row | Compound | ASMS ratio (%) n = 1 [%] | ASMS ratio (%) n = 2 [%]
1 | CCOc1cncc(-c2ccc(CN3CCN(c4ccc(C(=O)NCC(F)(F)F)cc4)CC3)cc2F)c1 [B1K052-01, 4-[4-[[4-(5-Ethoxypyridin-3-yl)-3-fluorophenyl]methyl]piperazin-1-yl]-N-(2,2,2-trifluoroethyl)benzamide] | −3.3 | 0.5
2 | CCOc1cccc(-c2ccc(CN3CCN(c4ccc(C(=O)NCC(F)(F)F)cc4)CC3)c(OC)c2)c1 [B1K053-01] | −0.5 | −3.3
3 | CCOc1cncc(-c2ccc(CN3CCN(c4ccc(C(=O)NCC(F)(F)F)cc4)CC3)c(OC)c2)c1 [B1K054-01, 4-[4-[[4-(5-Ethoxypyridin-3-yl)-2-methoxyphenyl]methyl]piperazin-1-yl]-N-(2,2,2-trifluoroethyl)benzamide] | 0.0 | 0.0
4 | CCOc1cccc(-c2cc(CN3CCN(c4ccc(C(=O)NCC(F)(F)F)cc4)CC3)cc(OCC)c2)c1 [B1K055-01, 4-[4-[[3-Ethoxy-5-(3-ethoxyphenyl)phenyl]methyl]piperazin-1-yl]-N-(2,2,2-trifluoroethyl)benzamide] | −0.8 | 0.0
5 | CCOc1cncc(-c2cc(CN3CCN(c4ccc(C(=O)NCC(F)(F)F)cc4)CC3)cc(OCC)c2)c1 [B1K056-01, 4-[4-[[3-Ethoxy-5-(5-ethoxypyridin-3-yl)phenyl]methyl]piperazin-1-yl]-N-(2,2,2-trifluoroethyl)benzamide] | 3.3 | 0.2
6 | CCOc1cccc(-c2cc(CN3CCN(c4ccc(C(=O)NCC(F)(F)F)cc4)CC3)cc(OC(C)C)c2)c1 [B1K057-01, 4-[4-[[3-(3-Ethoxyphenyl)-5-propan-2-yloxyphenyl]methyl]piperazin-1-yl]-N-(2,2,2-trifluoroethyl)benzamide] | 1.0 | −2.6
7 | CCOc1cncc(-c2cc(CN3CCN(c4ccc(C(=O)NCC(F)(F)F)cc4)CC3)cc(OC(C)C)c2)c1 [B1K058-01, 4-[4-[[3-(5-Ethoxypyridin-3-yl)-5-propan-2-yloxyphenyl]methyl]piperazin-1-yl]-N-(2,2,2-trifluoroethyl)benzamide] | 1.3 | 0.1
8 | CCOc1cccc(-c2cc(OC)c(CN3CCN(c4ccc(C(=O)NCC(F)(F)F)cc4)CC3)c(OC)c2)c1 [B1K059-01] | 3.0 | −1.9
9 | CCOc1cncc(-c2cc(OC)c(CN3CCN(c4ccc(C(=O)NCC(F)(F)F)cc4)CC3)c(OC)c2)c1 [B1K060-01] | 0.0 | 0.0
10 | CCOc1cccc(-c2cc(CN3CCN(c4ccc(C(=O)NCC(F)(F)F)cc4)CC3)cc(C(F)(F)F)c2)c1 [B1K061-01, 4-[4-[[3-(3-Ethoxyphenyl)-5-(trifluoromethyl)phenyl]methyl]piperazin-1-yl]-N-(2,2,2-trifluoroethyl)benzamide] | 2.8 | −1.3
11 | CCOc1cncc(-c2cc(CN3CCN(c4ccc(C(=O)NCC(F)(F)F)cc4)CC3)cc(C(F)(F)F)c2)c1 [B1K062-01, 4-[4-[[3-(5-Ethoxypyridin-3-yl)-5-(trifluoromethyl)phenyl]methyl]piperazin-1-yl]-N-(2,2,2-trifluoroethyl)benzamide] | 1.2 | −0.3
12 | CCOc1cncc(-c2cc(CN3CCN(c4ccc(C(=O)NCC(F)(F)F)cc4)CC3)cc(OC(F)(F)F)c2)c1 [B1K064-01, 4-[4-[[3-(5-Ethoxypyridin-3-yl)-5-(trifluoromethoxy)phenyl]methyl]piperazin-1-yl]-N-(2,2,2-trifluoroethyl)benzamide] | 1.4 | 0.7
13 | CCOc1cccc(-c2ccc(CN3CCN(c4ccc(C(=O)NCC(F)(F)F)cc4)CC3)c3ccccc23)c1 [B1K065-01, 4-[4-[[4-(3-Ethoxyphenyl)naphthalen-1-yl]methyl]piperazin-1-yl]-N-(2,2,2-trifluoroethyl)benzamide] | 5.9 | −5.6
